Results on six compounds are retold here after ChEMBL document CHEMBL1130719, “Synthesis of 6(alpha, beta)-aminocholestanols as ergosterol biosynthesis inhibitors” (Bioorg Med Chem Lett, 1998).

Common to all, as to type: functional, organism-based
The subject of assay [1] is Candida albicans. Put plainly: Compound was tested for growth inhibition against Candida albicans (CIP 1180.79); Slow development (>80-<100 uM).
Assay [2] relates to Saccharomyces cerevisiae. Kind of assay: Compound was tested for growth inhibition against Saccharomyces cerevisiae (ATCC 28383); Slow development (>80-<100 uM).
Assay [3] deals with Candida albicans. Put plainly: Compound was tested for growth inhibition against Candida albicans (CIP 1180.79).
The subject of assay [4] is Saccharomyces cerevisiae. Put plainly: Compound was tested for growth inhibition against Saccharomyces cerevisiae (ATCC 28383).
For assay [5], the system named is Candida albicans. Put plainly: Compound was tested for growth inhibition against Candida albicans (CIP 1180.79); Inactive over 250 uM.
Assay [6] relates to Saccharomyces cerevisiae. Put plainly: Compound was tested for growth inhibition against Saccharomyces cerevisiae (ATCC 28383); Inactive over 250 uM.

The term IC50 denotes the concentration that inhibits the measured activity by half. As to `CC(=O)N[C@@H]1C[C@@H]2[C@H](CC[C@]3(C)C([C@H](C)CCCC(C)C)CC[C@@H]23)[C@@]2(C)CC[C@H](O)C[C@H]12` (some centres not stated), the IC50 in the assay on Candida albicans [1] and in the assay on Saccharomyces cerevisiae [2] was over 80 µM throughout.
Turning to `CC(C)CCC[C@@H](C)C1CC[C@H]2[C@@H]3C[C@H](N)[C@H]4C[C@@H](O)CC[C@]4(C)[C@H]3CC[C@]12C` (some centres not stated), the IC50 was under 31 µM in the assay with Candida albicans [3] and under 15 µM in the assay with Saccharomyces cerevisiae [4].
For the compound `CC(C)CCC[C@@H](C)C1CC[C@H]2[C@@H]3C[C@H]([N+](=O)[O-])[C@H]4C[C@@H](O)CC[C@]4(C)[C@H]3CC[C@]12C` (some centres not stated), the IC50 entry in the assay with Candida albicans [5] and with Saccharomyces cerevisiae [6] was “Not Active” throughout.
For `CC(C)CCC[C@@H](C)C1CC[C@H]2[C@@H]3C[C@@H](N)C4C[C@@H](O)CC[C@]4(C)[C@H]3CC[C@]12C` (some centres not stated), the figures for the IC50 with Candida albicans [3] and in the assay with Saccharomyces cerevisiae [4] were under 7 µM and under 15 µM, respectively.
On to `CC(C)CCC[C@@H](C)C1CC[C@H]2[C@@H]3C[C@@H]([N+](=O)[O-])[C@H]4C[C@@H](O)CC[C@]4(C)[C@H]3CC[C@]12C` (some centres not stated), for which the IC50 entry in the assay on Candida albicans [5] and in the assay on Saccharomyces cerevisiae [6] was “Not Active” each time.
For the compound `CC(=O)N[C@H]1C[C@@H]2[C@H](CC[C@]3(C)C([C@H](C)CCCC(C)C)CC[C@@H]23)[C@@]2(C)CC[C@H](O)C[C@H]12` (some centres not stated), the IC50 in the assay with Candida albicans [1] and in the assay with Saccharomyces cerevisiae [2] was over 80 µM throughout.
